Literature values as cited in US20250235427A1, “5-METHOXY-N,N-[…][…] THE TREATMENT OF SOCIAL/EMOTIONAL […] DETACHMENT” (GH RESEARCH IRELAND LIMITED, priority 2022, published 2025).

Tested on: patients with treatment resistant bipolar depression
Conditions: single 0.5·mg·kg^1 infusion; cited from earlier work

CNC1(c2ccccc2Cl)CCCCC1=O (centres unmarked) [ketamine]
duration of anti-anhedonic effect: up to 14 days
time to decrease of anhedonia (effect onset): ≤ 40 min
